Results: patent US8592374B2, “Neurotrophic peptides” (Research Foundation for Mental Hygiene, Inc., priority 2007, dated 2013)

What was measured:
[1] = system: granule cell layer of the dentate gyrus; assay: Stereological counts of DCX-, BrdU-NeuN- and c-Fos-NeuN-IR cells in the granule cell layer; format: in vivo, mice
Description: (§1) To study neurogenesis, mice received subcutaneous implants of extended release depot pellets containing either CNTF peptides 6a or 6c for 30 days of continuous dosing (Innovative Research of America, Sarasota, Fla.). For control groups, the pellets consisted of the carrier biopolymer only. For implantation, the mice were anesthetized with 2.5% Avertin (0.38 ml for a 25 g animal). Under sterile conditions, the pellets were then subcutaneously implanted along the anterolateral aspect of the right shoulder with a precision trochar (Innovative Research of America). The animals were then transferred to the animal colony after recovery from anesthesia. There were no complications associated with the implantation and treatment. BrdU was given as two daily i.p. injections (100 mg/kg/dose) for five days starting on day 2 of peptide treatment. Neurogenesis was assessed in the dentate gyrus (DG) by counting the number of BrdU-immunoreactive (BrdU-IR), BrdU-DCX-IR and BrdU-NeuN-IR cells in various layers of the DG. Employing principles of unbiased stereology, the optical fractionator method was used to estimate cell counts for the DG.
The following primary antibodies were used for immunohistochemistry: anti-BrdU (1:400; Accurate) a rat monoclonal raised against BrdU; anti-DCX (1:200; Santa Cruz Biotechnology Inc.), a goat polyclonal antibody raised against an 18-amino acid peptide representing residues […] of human doublecortin; anti-NeuN (1:500; Chemicon), a mouse monoclonal antibody raised against purified cell nuclei from mouse brain; Anti-c-Fos (Ab-5) (1:500; Calbiochem), a rabbit polyclonal antibody raised against a synthetic peptide corresponding to amino-acids 4-17 of human c-Fos; SMI52 (1:1000; Sternberger Monoclonals), a mouse monoclonal antibody specific for the mature neuronal marker MAP2a,b; anti-synaptophysin, SYN (1:200; Chemicon), a mouse monoclonal antibody raised against vesicular fraction of bovine brain. The following secondary antibodies were used: Alexa 488-conjugated goat anti-mouse IgG antibody and Alexa 594-conjugated goat anti-rabbit or anti-rat IgG antibody (Molecular Probes); biotinylated anti-rat IgG antibody and Cy5-conjugated goat anti-mouse antibody (Jackson ImmunoResearch).
(§2) Immunohistochemistry was performed as described elsewhere (Kuhn et al., J. Neurosci 17 (15) (1997): 5820-5829). Briefly, every 5th brain section was chosen for quantification of cell number and every 10th section was chosen for staining intensity scanning. Immunohistochemistry was performed on free floating sections. For BrdU immunohistochemistry, epitope retrieval and staining were performed as previously described (Kuhn et al., J. Neurosci 17 (15) (1997): 5820-5829).
For BrdU-DCX-, BrdU-NeuN-, and c-Fos-NeuN-IR cells, only GCL (consisting of iGCL and oGLC described above) was counted using 100× oil objective in every 10th section. To ensure objectivity, z-stacks were collected for each double IR cell and analyzed later by generating maximum projection and 3D constructs.

[2] = system: normal adult mice; assay: Morris Water Maze task, CNTF 6a / CNTF 6c pellets 30 days; format: in vivo
Description: For behavioral studies, performance on the Morris Water Maze task was assessed in three groups of 10 mice each (placebo, CNTF6a and CNTF6c) which received peptide treatment for 30 days. To avoid daily stress due to injections, all animals undergoing behavioral studies received subcutaneous implants of CNTF 6a, CNTF 6c or placebo pellets as described above.
All animals for behavioral testing were coded such that the experimentator was blind to the assignment of the animals to specific treatment groups. The Morris Water Maze procedure was performed using a 110 cm diameter circular tank. Before training, the mice were handled gently for 2-3 min/day during 3 days to minimize non-specific stress. Acquisition was started with the submerged (invisible) escape platform in the North-East quadrant and each animal was given 60 sec to find the submerged escape platform. […] Five such acquisition trials were given on each day, for four consecutive days. A test for retention, or probe trial, was given 24 hours later. During the probe trial the mouse was allowed to swim in the tank without the escape platform for 60 seconds. This was followed by second and third probe trials 15 and 30 days from the first probe trial. Each probe trial was immediately followed by a “retraining session” consisting of 5 trials/animal to consolidate learned behavior.
The measures of learning were the time and distance swum to reach the escape platform. For retention during the probe trial, the tank was divided into four imaginary quadrants and a small zone where the escape platform had been (virtual platform). The measures of retention were the percent of time spent and the percent of distance swum in each quadrant, and the number of entries into the platform zone.
Mouse behavior in the Morris Water Maze was monitored by a Samsung Digital Camera (SDC 4304) mounted to the ceiling and tracked and timed by a SMART (Pan Lab/San Diego Instruments) version 2.0.14 software.
Since normal adult mice were used as experimental animals, it was crucial not to miss any effect on memory acquisition and learning that the 30-day peptide treatment might have had. Therefore, a partial training paradigm was used to evaluate learning and memory in the Morris Water Maze. Treated mice were trained on the Morris Water Maze for a total of 20 sessions spanning 4 days after which they were subjected to the first probe trial (P1). Two additional probe trials (P2 and P3) were administered 15 and 30 days after P1. […] Learning was evaluated in terms of latency and distance traveled to reach the invisible escape platform. Retention was measured on probe trials by the percent of time and travel distance in the target quadrant, and the number of crossings of the virtual platform.

[3] = system: neural progenitor cells of the dentate gyrus; assay: Stereological counts of BrdU-IR cells in subregions of the hippocampus, 30-day pellets; format: in vivo, mice
Description: All in vivo studies for characterization of peptides (stereology and behavioral analysis) were performed on 8-10-month-old female retired breeders of C57Bl6 background. The animals were acclimatized for at least 3 weeks to exclude occasional pregnant mice from the studies. Mice were group-housed (3 animals per cage) with a 12:12 light:dark cycle and with free access to food and water. All procedures were conducted in accordance with approved protocols from our institutional Animal Welfare Committee.
as §1
At the end of treatment, all animals were anesthetized with an overdose of sodium pentobarbital and transcardially perfused with 0.1 M PBS. After perfusion, the brains were removed from the skull, the left hemisphere was immediately frozen for future biochemical analysis and the right hemisphere was fixed in 4% paraformaldehyde in 0.1 M PBS for at least 24 hours at room temperature. Tissues were then stored in 30% sucrose solutions at 4° C. until sectioning. The brains were sectioned sagittaly on a freezing sliding microtome at […] through the entire hippocampus and the sections were stored in glycol anti-freeze solution (Ethylene glycol, glycerol and 0.1 M PBS in 3:3:4 ratio) at −20° C. till further processing.
as §2
Neurogenesis was assessed in the DG by counting the number of BrdU-immunoreactive (BrdU-IR), BrdU-DCX-IR and BrdU-NeuN-IR cells in various layers of the DG. The granule cell layer (GCL) was subdivided into an inner and outer half (iGCL and oGCL). The iGCL consisted of the subgranular zone (SGZ, defined as a 2-3 nuclei thick layer bordering the GCL) and the inner half of the GCL adjacent to the Hilus (Hil); the outer GCL (oGCL) was defined as the half of the GCL adjacent to the Molecular layer (Mol). A cell in the middle of the GCL was considered part of the iGCL and a cell bordering the GCL in the Mol was included in oGCL counts. […] Hil included the superficial polymorphic layer.
All sections were collected using the random uniform sampling scheme. For BrdU-IR cells, counting was performed on every 5th section using 40× oil objective of a Nikon 90i fluorescent microscope equipped with Nikon C1 three laser confocal system and a Nikon DS U1 digital camera. Employing principles of unbiased stereology, the optical fractionator method was used to estimate cell counts for the DG (West et al., Anat Rec 231 (1991): 482-497). […]

[4] = system: dentate gyrus progenitors; assay: DCX expression in BrdU labeled progenitors in the dentate gyrus; format: in vivo, mice; settings: 14 day treatment group
Text: (§3) All experiments involving mice were done on 8-10 month old female retired breeders of C57BL6 background. A total of 33 mice were divided into 10 groups of 3 animals each (except control group which had 6 mice). The groups are described in Table 1. Details of CNTF peptides are described in Table 2.
(§4) The animals were kept in groups of 3 per cage. The mice were given daily intraperitoneal injections of four CNTF peptides either separately or in a mixture for 2 weeks as described in table 1. From day 2, BrdU (Bromodeoxyuridine; 150 mg/Kg) was added to the injections. The animals were sacrificed 24 hours after the last injection (FIG. 1). Briefly, the animals were perfused transcardially with PBS and their brains taken out and dissected into halves. One hemisphere from each animal was frozen for biochemical analysis and the other was fixed in 4% paraformaldehyde for 48 hours followed by equilibration in 30% sucrose in PBS overnight. These were then processed for immunohistochemistry.
(§5) Fixed tissues were cut into 40 μm sections on a freezing sliding microtome. One in 5 sections per brain was processed for BrdU staining and visualized by immunoflorecence. Cell counting was done on these sections to determine the number of BrdU labeled cells (representing newly born cells) in the dentate gyrus of the hippocampus. The area of counting was limited to the granule cell layer and the subgranular zone (a two-nucleus thick layer adjacent to the granule cell layer). For counting purposes, the dentate gyrus was divided into two areas, the outer granule cell layer (oGCL) consisting of out half of the granule cell layer, and the subventricular zone (SVZ) comprising of the inner half (towards the hilus) of the granule cell layer plus a two-nucleus thick layer adjacent to the outer border of the hilus. Cell counting was done on confocal images of the sections according to the optical dissector principle. Volumetric analysis was carried out with the help of Image Pro software.

[5] = system: dentate gyrus progenitor cells; assay: Cell proliferation (BrdU labeled cells) in the dentate gyrus of mice given CNTF peptides i.p.; format: in vivo; settings: for proliferation of dentate gyrus progenitor cells: BrdU labeling, 8-10 month old female C57BL6 mice
Text: as §3
as §4, with “Table” for “table”, “injection.” for “injection (FIG. 1).”
as §5, with “of one” for “of out”, “the subgranular” for “the subventricular”, “zone (SGZ)” for “zone (SVZ) comprising”
as §4, §5

[6] = 30-day treated mice (n = 5/group)
[7] = daily i.p. injections for 2 weeks
[8] = both concentrations (0.5 and 5 nmoles/animal)

V-G-D-G (VGDG; neurotrophic and/or neurogenic peptide) [CNTF 6a]
Stereological counts (±SEM) of cells expressing DCX in the granule cell layer [1, 6]: 360 ± 33
Stereological counts (±SEM), NeuN-BrdU/BrdU in the granule cell layer [1, 6]: 19 ± 2
Stereological counts (±SEM) of c-fos-NeuN cells in the granule cell layer ([1]; 30-day treated mice (n = 5/group), basal activity): 214 ± 27
increase in BrdU-NeuN-IR cells in the GCL compared with placebo ([1]; 30-day treatment): no effect
increase of DCX-IR cells in the GCL compared to placebo ([1]; 30-day treatment): did not show any significant difference
learning in the spatial reference memory task (swim latencies) ([2]; 30-day pellets, 20 training sessions over 4 days): no effect
percent time spent in the target quadrant across three probe trials ([2]; P1, P2, P3): reduced this time during subsequent P2 and P3
BrdU-IR cell numbers in the four sub-regions of the DG ([3]; 30-day pellets): no effect
increase of BrdU-IR cell counts in the GCL compared to placebo ([3]; 30-day pellets, 50 nmol/peptide/animal/day): not significant effect
Stereological counts (±SEM) of BrdU-IR cells, GCL [3, 6]: 493 ± 28
Stereological counts (±SEM) of BrdU-IR cells, Hil [3, 6]: 126 ± 8
Stereological counts (±SEM) of BrdU-IR cells, Mol [3, 6]: 538 ± 99
Stereological counts (±SEM) of BrdU-IR cells, iGCL [3, 6]: 382 ± 15
Stereological counts (±SEM) of BrdU-IR cells, oGCL [3, 6]: 110 ± 13

CHQGCGGLFEC [Peptide 10, CNTF loop peptide, used as control]
differentiation of dentate gyrus progenitors into DCX (doublecortin) expressing cells [4]: did not have any effect
proliferation of dentate gyrus progenitor cells [5, 7]: no effect

EDQQVHFTPTEG (neurotrophic and/or neurogenic peptide) [Peptide 9]
differentiation of dentate gyrus progenitors into DCX (doublecortin) expressing cells [4]: did not have any effect
cell proliferation in the SGZ ([5]; 0.5 nmoles/animal): increased cell proliferation
proliferation of dentate gyrus progenitor cells [5, 7]: statistically significant increase

IPRNEADGMPINV (neurotrophic and/or neurogenic peptide) [Peptide 5]
differentiation of dentate gyrus progenitors into DCX (doublecortin) expressing cells [4]: did not have any effect
cell proliferation in the SGZ (subgranular zone) [5, 8]: increased cell proliferation
cell proliferation in the oGCL (outer portion of the granule cell layer) [5, 8]: increased cell proliferation
proliferation of dentate gyrus progenitor cells compared with Peptide 9 [5, 7]: more proliferation than Peptide 9
proliferation of dentate gyrus progenitor cells [5, 7]: statistically significant increase
